Each structure is given as a SMILES string.

One test deals with MDR HIV-1 variant VSL20. The test can be described thus: Cell-based antiviral assay. To be noted: relative to corresponding isobutyl analogues 12 and 13.
Test [1] has as its target HIV-1 protease I84V variant (Human immunodeficiency virus type 1 group M subtype B, UniProt P12497, I572V/Q495K). The class given is biochemical.
The subject of the next test is WT HIV-1 strain NL4-3. The test can be described thus: Cell-based antiviral assay. To be noted: relative to DRV.

As for `CC[C@H](C)CN(C[C@@H](O)[C@H](Cc1ccccc1)NC(=O)O[C@H]1CO[C@H]2OCC[C@H]21)S(=O)(=O)c1ccc([C@H](C)O)cc1` [Compound 14, (3R,3aS,6aR)-Hexahydrofuro[2,3-b]furan-3-yl ((2S,3R)-3-hydroxy-4-((4-((S)-1-hydroxyethyl)-N-((S)-2-methylbutyl)phenyl)sulfonamido)-1-phenylbutan-2-yl)carbamate], in the test with MDR HIV-1 variant VSL20, the “fold loss in potency against VSL20 compared to analogues 12 and 13” value was found to be 2 fold. `CC[C@H](C)CN(C[C@@H](O)[C@H](Cc1ccccc1)NC(=O)O[C@H]1CO[C@H]2OCC[C@H]21)S(=O)(=O)c1ccc([C@@H](C)O)cc1` [Compound 15, (3R,3aS,6aR)-Hexahydrofuro[2,3-b]furan-3-yl ((2S,3R)-3-hydroxy-4-((4-((R)-1-hydroxyethyl)-N-((S)-2-methylbutyl)phenyl)sulfonamido)-1-phenylbutan-2-yl)carbamate]: the “fold loss in potency against VSL20 compared to analogues 12 and 13” value with MDR HIV-1 variant VSL20 was found to be 2 fold.

Turning to `CC(C)CN(C[C@@H](O)[C@H](Cc1ccccc1)NC(=O)O[C@H]1CO[C@H]2OCC[C@H]21)S(=O)(=O)c1ccc([C@H](O)CO)cc1` [Compound 23, (3R,3aS,6aR)-Hexahydrofuro[2,3-b]furan-3-yl ((2S,3R)-4-((4-((S)-1,2-dihydroxyethyl)-N-isobutylphenyl)sulfonamido)-3-hydroxy-1-phenylbutan-2-yl)carbamate], the “fold less active against the I84V protease than the P2′ epimer 22” value in test [1] (I84V protease, relative to diastereoisomer 22) is reported as “about 3 fold”. Take `CCC(CC)CN(C[C@@H](O)[C@H](Cc1ccccc1)NC(=O)O[C@H]1CO[C@H]2OCC[C@H]21)S(=O)(=O)c1ccc([C@@H](O)CO)cc1` [Compound 26, (3R,3aS,6aR)-Hexahydrofuro[2,3-b]furan-3-yl ((2S,3R)-4-((4-((R)-1,2-dihydroxyethyl)-N-(2-ethylbutyl)phenyl)sulfonamido)-3-hydroxy-1-phenylbutan-2-yl)carbamate]: the “fold less active than DRV against wild-type HIV-1” value in the test with WT HIV-1 strain NL4-3 was 8 fold. For the compound `CCC(CC)CN(C[C@@H](O)[C@H](Cc1ccccc1)NC(=O)O[C@H]1CO[C@H]2OCC[C@H]21)S(=O)(=O)c1ccc([C@H](O)CO)cc1` [Compound 27, (3R,3aS,6aR)-Hexahydrofuro[2,3-b]furan-3-yl ((2S,3R)-4-((4-((S)-1,2-dihydroxyethyl)-N-(2-ethylbutyl)phenyl)sulfonamido)-3-hydroxy-1-phenylbutan-2-yl)carbamate], the “fold less active than DRV against wild-type HIV-1” value with WT HIV-1 strain NL4-3 is on record as 8 fold. Moreover, in test [1] (I84V and I50V/A71V variants, relative to 26), the “fold less potent against the protease variants tested than the (R)-epimer 26” value is recorded as 2–3 fold.
